Results reported in US20260167621A1, “Three Cluster Galactose Type Compound, Conjugate, Making Method and Use Thereof” (GUANGZHOU RIBOBIO CO., LTD., priority 2023, published 2026).

Tests used:
PCSK9 mRNA = assay: Knock down effect on the expression of PCSK9 mRNA in Hep3B cell; type: cell-based, human; conditions: Lipofectamine 3000 transfection, qPCR, actin as reference gene
Procedure: Referring to Chinese Patent Application No. CN109957567B, the synthesized siRNA sequences were shown below:
The compound G2, G4, G5 obtained from the examples 2, 4, 5, bound to the above mentioned siRNA respectively to form conjugates which were shown in Table 4.
Hep3B cell (ATCC, HB-8064) was cultured, the cell density was about 30% to 50% before transfection and relatively uniformly.
Each conjugate samples of Table 4 were prepared to 20 μM storage solution, and were set as experimental groups. Except the experimental groups, normal cell control group (Blank), transfection reagent control group (Mock), negative control group 1 (NC001, Ribobio, siM21 1215011852) and negative control group 2 (NC002, Ribobio, siM21 1215011852) were also set. Referring to the specification of Lipofectamine™ 3000 transfection reagent (Thermo Fisher, L300001), cells were transfected. Both the experimental groups and the control groups had 3 replicates.
The total RNA extraction was performed with reference to the specification of MagZol Reagent (Magen, R4801).
The reverse transcription was performed with reference to the specification of riboSCRIPT™ Reverse Transcription Kit (Ribobio, C11027-2).
Human house keeping gene actin was used for reference gene, forward primer sequence of actin gene: 5′-[…]-3′ (SEQ ID NO: 5), reverse primer sequence: 5′-[…]-3′ (SEQ ID NO: 6); forward primer sequence of human PCSK9 gene: 5′-[…]-3′ (SEQ ID NO: 7), reverse primer sequence: 5′-[…]-3′ (SEQ ID NO: 8). 2×SYBR Green Mix (Ribobio, C10712F −1 m l) and fluorescence quantitative PCR instrument (BioRad, CFX96) were used to perform real time fluorescence quantitative PCR reaction. After PCR reaction, the Ct deviation of 9 replicates of a sample (3 transfection replicates×3 qPCR duplicates) should be ±0.5. Then CFX 2.1 software was used for quantitative analysis.

[1] = target: T1, Hepatocyte ASGPR receptor (Homo sapiens, UniProt P07306); assay: Binding affinity test with hepatocyte ASGPR receptor (Cy5 flow cytometry, binding saturation curve); conditions: for Bmax: average Cy5 fluorescence intensity of live cells minus blank, one site binding (hyperbola) fit; for Bmax / Kd: 0.9-100 nM, 2 hours on ice; for Kd: one site binding (hyperbola) fit of Cy5 fluorescence, read-out: Kd (dissociation equilibrium constant); for binding affinity with ASGPR receptor: statement in words from Table 3
T1 construct: endogenous in cells
T1 sequence (P07306 1-291): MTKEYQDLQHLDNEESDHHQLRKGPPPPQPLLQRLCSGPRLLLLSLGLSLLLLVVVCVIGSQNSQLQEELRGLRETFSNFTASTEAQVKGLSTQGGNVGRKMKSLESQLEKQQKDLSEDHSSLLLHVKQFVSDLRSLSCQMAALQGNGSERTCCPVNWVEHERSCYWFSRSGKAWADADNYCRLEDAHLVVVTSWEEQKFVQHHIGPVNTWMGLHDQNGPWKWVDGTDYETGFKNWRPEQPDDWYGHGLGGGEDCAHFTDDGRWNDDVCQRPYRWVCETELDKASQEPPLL
T1 sequence (P07307 1-311 partner): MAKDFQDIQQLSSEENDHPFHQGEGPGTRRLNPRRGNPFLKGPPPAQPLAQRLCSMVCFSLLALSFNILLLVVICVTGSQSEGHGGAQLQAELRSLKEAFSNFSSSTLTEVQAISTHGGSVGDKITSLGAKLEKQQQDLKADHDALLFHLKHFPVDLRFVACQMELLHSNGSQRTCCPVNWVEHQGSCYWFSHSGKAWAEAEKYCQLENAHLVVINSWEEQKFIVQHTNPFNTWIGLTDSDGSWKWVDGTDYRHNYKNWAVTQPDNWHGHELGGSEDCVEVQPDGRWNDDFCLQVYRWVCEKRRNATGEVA
Procedure: Embodiment 1: Binding Affinity Test with Hepatocyte ASGPR Receptor
The compound G1, G4, G5 obtained from the examples 1, 4, 5, bound to the above mentioned siRNA respectively to form conjugates which were shown in Table 1.
G1-12, G4-12, G5-12 (1 uM) were diluted respectively in a gradient according to the following Table 2.
The cell concentration was diluted by DMEM culture medium with 2% FBS to 4*10^5 cells/mL.
200 μL cells of each sample and 200 μL siRNA were mixed uniformly, 200 μL cells of the blank control group and 200 μL culture medium were mixed uniformly, and were added in 3 wells of 96-well plate with U-shaped bottom, 100 μL each well. Samples of each concentration of all siRNA were placed in the ice box after sampling, and were placed in decolorization shaker and incubated in dark for 2 hours.
50 g of 96-well plate with U-shaped bottom was centrifuged for 2 minutes at 4° C. 80 μL supernatant was aspirated and discarded by pipette, 10 μg/mL propidium iodide was prepared by using of PBS with 2% FBS, 100 μL PI reagent was added in each well and was stained for 15 minutes. After staining, 50 g of 96-well plate with U-shaped bottom was centrifuged for 2 minutes at 4° C. After washed by PBS with 2% FBS for twice, 100 μL PBS with 2% FBS was added for resuspension, flow cytometer was used to test and count the average Cy5 fluorescence intensity of live cell population.

Substance	PCSK9 mRNA relative expression value, the average relative expression (PCSK9 mRNA)	Bmax [1]	Kd [1] [nM]	binding affinity with ASGPR receptor [1]
G2-34: G2 bound to 5' end of SEQ ID NO: 3, paired with 5'-phos* SEQ ID NO: 4 (PCSK9 siRNA); structure Z2 (sense GGUCUGGAAUGCAAAGUCA; antisense UGACUUUGCAUUCCAGACC; G2 ligand 5'; 5'-phosphate; modified_base join(1,4,5,6,10,11,12,13,14,15,16) OTHER; 2'-O-methyl modification; modified_base join(2,3,17,18,19) OTHER; thiophosphorylated skeleton modification and 2'-O-methyl modification; modified_base join(7,8,9) OTHER; 2'-fluoro modification; modified_base join(1,5,7,9,11,13,15) OTHER; modified_base join(3,17,18,19) OTHER; modified_base 2 OTHER; thiophosphorylated skeleton modification and 2'-fluoro modification; modified_base join(4,6,8,10,12,14,16) OTHER) [Compound G2-34]	0.34	–	–	–
G4-12: G4 bound to 5' end of SEQ ID NO: 1 via C6 amino modification, paired with 5'-Cy5 SEQ ID NO: 2; structure Z4 (sense GUAUGUUGCCCGUUUGUCC; antisense GGACAAACGGGCAACAUACCU; G4 ligand via C6 amino; Cy5 label; modified_base join(1,5,8,12,16) OTHER; deoxyribonucleotide modification; modified_base 3 OTHER; thiophosphorylated skeleton modification and deoxyribonucleotide modification; modified_base join(4,6,7,9,10,11,13,14,15,17) OTHER; 2'-fluoro modification; modified_base join(2,18,19) OTHER; thiophosphorylated skeleton modification and 2'-fluoro modification; modified_base join(1,5,7,9,11,13,15,17) OTHER; 2'-O-methyl modification; modified_base join(3,19,20,21) OTHER; thiophosphorylated skeleton modification and 2'-O-methyl modification; modified_base join(2,4) …) [Compound G4-12]	–	239297	6.37	reach a higher level
G4-34: G4 bound to 5' end of SEQ ID NO: 3 via C6 amino modification, paired with 5'-phos* SEQ ID NO: 4; structure Z4 (sense GGUCUGGAAUGCAAAGUCA; antisense UGACUUUGCAUUCCAGACC; G4 ligand via C6 amino; 5'-phosphate; modified_base join(1,4,5,6,10,11,12,13,14,15,16) OTHER; 2'-O-methyl modification; modified_base join(2,3,17,18,19) OTHER; thiophosphorylated skeleton modification and 2'-O-methyl modification; modified_base join(7,8,9) OTHER; 2'-fluoro modification; modified_base join(1,5,7,9,11,13,15) OTHER; modified_base join(3,17,18,19) OTHER; modified_base 2 OTHER; thiophosphorylated skeleton modification and 2'-fluoro modification; modified_base join(4,6,8,10,12,14,16) OTHER) [Compound G4-34]	0.41	–	–	–
G5-12: G5 bound to 5' end of SEQ ID NO: 1 via C6 amino modification, paired with 5'-Cy5 SEQ ID NO: 2; structure Z5 (sense GUAUGUUGCCCGUUUGUCC; antisense GGACAAACGGGCAACAUACCU; G5 ligand via C6 amino; Cy5 label; modified_base join(1,5,8,12,16) OTHER; deoxyribonucleotide modification; modified_base 3 OTHER; thiophosphorylated skeleton modification and deoxyribonucleotide modification; modified_base join(4,6,7,9,10,11,13,14,15,17) OTHER; 2'-fluoro modification; modified_base join(2,18,19) OTHER; thiophosphorylated skeleton modification and 2'-fluoro modification; modified_base join(1,5,7,9,11,13,15,17) OTHER; 2'-O-methyl modification; modified_base join(3,19,20,21) OTHER; thiophosphorylated skeleton modification and 2'-O-methyl modification; modified_base join(2,4) …) [Compound G5-12]	–	199232	3.69	reach a higher level
G5-34: G5 bound to 5' end of SEQ ID NO: 3 via C6 amino modification, paired with 5'-phos* SEQ ID NO: 4; structure Z5 (sense GGUCUGGAAUGCAAAGUCA; antisense UGACUUUGCAUUCCAGACC; G5 ligand via C6 amino; 5'-phosphate; modified_base join(1,4,5,6,10,11,12,13,14,15,16) OTHER; 2'-O-methyl modification; modified_base join(2,3,17,18,19) OTHER; thiophosphorylated skeleton modification and 2'-O-methyl modification; modified_base join(7,8,9) OTHER; 2'-fluoro modification; modified_base join(1,5,7,9,11,13,15) OTHER; modified_base join(3,17,18,19) OTHER; modified_base 2 OTHER; thiophosphorylated skeleton modification and 2'-fluoro modification; modified_base join(4,6,8,10,12,14,16) OTHER) [Compound G5-34]	0.33	–	–	–
